Assay results published in US20220104493A1, “HERBICIDAL COMPOUNDS” (SYNGENTA CROP PROTECTION AG, priority 2019, published 2022).
Structures can show the parent of a compound that is named as a salt.

Experiments:
Test in all cases: Post-emergence efficacy, Method A
Assay type in all cases: in vivo
[1] = tested on: Ipomoea hederacea (IPOHE); conditions: 100=total damage to plant, 0=no damage, evaluated after 7 and 14 days, read-out: Control of weed species after post-emergence application, IPOHE
[2] = tested on: Euphorbia heterophylla (EPHHL); conditions: 100=total damage to plant, 0=no damage, evaluated after 7 and 14 days, read-out: Control of weed species after post-emergence application, EPHHL
[3] = tested on: Chenopodium album (CHEAL); conditions: 100=total damage to plant, 0=no damage, evaluated after 7 and 14 days, read-out: Control of weed species after post-emergence application, CHEAL
[4] = tested on: Amaranthus palmeri (AMAPA); conditions: 100=total damage to plant, 0=no damage, evaluated after 7 and 14 days, read-out: Control of weed species after post-emergence application, AMAPA
Lolium perenne (LOLPE) = conditions: 100=total damage to plant, 0=no damage, evaluated after 7 and 14 days, read-out: Control of weed species after post-emergence application, LOLPE
[5] = tested on: Digitaria sanguinalis (DIGSA); conditions: 100=total damage to plant, 0=no damage, evaluated after 7 and 14 days, read-out: Control of weed species after post-emergence application, DIGSA
Eleusine indica (ELEIN) = conditions: 100=total damage to plant, 0=no damage, evaluated after 7 and 14 days, read-out: Control of weed species after post-emergence application, ELEIN
[6] = tested on: Echinochloa crus-galli (ECHCG); conditions: 100=total damage to plant, 0=no damage, evaluated after 7 and 14 days, read-out: Control of weed species after post-emergence application, ECHCG
Setaria faberi (SETFA) = conditions: 100=total damage to plant, 0=no damage, evaluated after 7 and 14 days, read-out: Control of weed species after post-emergence application, SETFA

SMILES: O=S(=O)([O-])CC[n+]1ccc(-c2nc(C(F)(F)F)co2)cc1 [Compound A46]
- pest or weed control at 500 g/ha [1]: 0%
- pest or weed control at 500 g/ha [2]: 0%
- pest or weed control at 500 g/ha [3]: 0%
- pest or weed control at 500 g/ha [4]: 30%
- pest or weed control at 500 g/ha (Lolium perenne (LOLPE)): 0%
- pest or weed control at 500 g/ha [5]: 0%
- pest or weed control at 500 g/ha (Eleusine indica (ELEIN)): 0%
- pest or weed control at 500 g/ha [6]: 0%
- pest or weed control at 500 g/ha (Setaria faberi (SETFA)): 0%

SMILES: O=C(O)CC[n+]1ccc(-c2ncns2)cc1 [Compound A7, 3-[4-(1,2,4-thiadiazol-5-yl)pyridin-1-ium-1-yl]propanoic acid chloride]
- pest or weed control at 500 g/ha [1]: 30%
- pest or weed control at 500 g/ha [2]: 80%
- pest or weed control at 500 g/ha [3]: 90%
- pest or weed control at 500 g/ha [4]: 100%
- pest or weed control at 500 g/ha (Lolium perenne (LOLPE)): 30%
- pest or weed control at 500 g/ha [5]: 90%
- pest or weed control at 500 g/ha (Eleusine indica (ELEIN)): 70%
- pest or weed control at 500 g/ha [6]: 50%
- pest or weed control at 500 g/ha (Setaria faberi (SETFA)): 70%

SMILES: O=S(=O)([O-])C[n+]1ccc(-c2cnns2)cc1 [Compound A3, [4-(thiadiazol-5-yl)pyridin-1-ium-1-yl]methanesulfonate]
- pest or weed control at 500 g/ha [1]: 80%
- pest or weed control at 500 g/ha [2]: 80%
- pest or weed control at 500 g/ha [3]: 90%
- pest or weed control at 500 g/ha [4]: 100%
- pest or weed control at 500 g/ha (Lolium perenne (LOLPE)): 20%
- pest or weed control at 500 g/ha [5]: 70%
- pest or weed control at 500 g/ha (Eleusine indica (ELEIN)): 50%
- pest or weed control at 500 g/ha [6]: 40%
- pest or weed control at 500 g/ha (Setaria faberi (SETFA)): 80%

SMILES: O=C(O)CC[n+]1ccc(-c2nc(C(F)(F)F)ns2)cc1 [Compound A48, 3-[4-[3-(trifluoromethyl)-1,2,4-thiadiazol-5-yl]pyridin-1-ium-1-yl]propanoic acid acetate]
- pest or weed control at 125 g/ha ([1]; 125 g/Ha): 0%
- pest or weed control at 125 g/ha ([2]; 125 g/Ha): 30%
- pest or weed control at 125 g/ha ([3]; 125 g/Ha): 10%
- pest or weed control at 125 g/ha ([4]; 125 g/Ha): 90%
- pest or weed control at 125 g/ha (Lolium perenne (LOLPE); 125 g/Ha): 10%
- pest or weed control at 125 g/ha ([5]; 125 g/Ha): 0%
- pest or weed control at 125 g/ha (Eleusine indica (ELEIN); 125 g/Ha): 0%
- pest or weed control at 125 g/ha ([6]; 125 g/Ha): 0%
- pest or weed control at 125 g/ha (Setaria faberi (SETFA); 125 g/Ha): 20%

SMILES: O=S(=O)([O-])OCC[n+]1ccc(-c2csnn2)cc1 [Compound A65, 2-[4-(thiadiazol-4-yl)pyridin-1-ium-1-yl]ethyl sulfate]
- pest or weed control at 500 g/ha [1]: 20%
- pest or weed control at 500 g/ha [2]: 20%
- pest or weed control at 500 g/ha [3]: 20%
- pest or weed control at 500 g/ha [4]: 30%
- pest or weed control at 500 g/ha (Lolium perenne (LOLPE)): 10%
- pest or weed control at 500 g/ha [5]: 30%
- pest or weed control at 500 g/ha (Eleusine indica (ELEIN)): 20%
- pest or weed control at 500 g/ha [6]: 20%
- pest or weed control at 500 g/ha (Setaria faberi (SETFA)): 10%

SMILES: O=C(O)C[n+]1ccc(-c2ncsn2)cc1 [Compound A83]
- pest or weed control at 500 g/ha [1]: 10%
- pest or weed control at 500 g/ha [2]: 50%
- pest or weed control at 500 g/ha [3]: 30%
- pest or weed control at 500 g/ha [4]: 20%
- pest or weed control at 500 g/ha (Lolium perenne (LOLPE)): 10%
- pest or weed control at 500 g/ha [5]: 20%
- pest or weed control at 500 g/ha (Eleusine indica (ELEIN)): 10%
- pest or weed control at 500 g/ha [6]: 0%
- pest or weed control at 500 g/ha (Setaria faberi (SETFA)): 10%

SMILES: O=S(=O)([O-])CCC[n+]1ccc(-c2cnon2)cc1 [Compound A18]
- pest or weed control at 500 g/ha [1]: 20%
- pest or weed control at 500 g/ha [2]: 50%
- pest or weed control at 500 g/ha [3]: 50%
- pest or weed control at 500 g/ha [4]: 100%
- pest or weed control at 500 g/ha (Lolium perenne (LOLPE)): 10%
- pest or weed control at 500 g/ha [5]: 30%
- pest or weed control at 500 g/ha (Eleusine indica (ELEIN)): 30%
- pest or weed control at 500 g/ha [6]: 50%
- pest or weed control at 500 g/ha (Setaria faberi (SETFA)): 40%

SMILES: Cn1nnnc1-c1cc[n+](CS(=O)(=O)[O-])cc1 [Compound A57]
- pest or weed control at 500 g/ha [1]: 0%
- pest or weed control at 500 g/ha [2]: 20%
- pest or weed control at 500 g/ha [3]: 80%
- pest or weed control at 500 g/ha [4]: 100%
- pest or weed control at 500 g/ha (Lolium perenne (LOLPE)): 0%
- pest or weed control at 500 g/ha [5]: 30%
- pest or weed control at 500 g/ha (Eleusine indica (ELEIN)): 20%
- pest or weed control at 500 g/ha [6]: 60%
- pest or weed control at 500 g/ha (Setaria faberi (SETFA)): 0%

SMILES: O=C(O)CC[n+]1ccc(-c2nccs2)cc1 [Compound A25]
- pest or weed control at 500 g/ha [1]: 10%
- pest or weed control at 500 g/ha [2]: 0%
- pest or weed control at 500 g/ha [3]: 10%
- pest or weed control at 500 g/ha [4]: 0%
- pest or weed control at 500 g/ha (Lolium perenne (LOLPE)): 0%
- pest or weed control at 500 g/ha [5]: 10%
- pest or weed control at 500 g/ha (Eleusine indica (ELEIN)): 10%
- pest or weed control at 500 g/ha [6]: 0%
- pest or weed control at 500 g/ha (Setaria faberi (SETFA)): 0%

SMILES: OCC[n+]1ccc(-c2nnc(-c3ccccc3)o2)cc1 [Compound A69, 2-[4-(5-phenyl-1,3,4-oxadiazol-2-yl)pyridin-1-ium-1-yl]ethanol 2,2,2-trifluoroacetate]
- pest or weed control at 500 g/ha [1]: 20%
- pest or weed control at 500 g/ha [2]: 20%
- pest or weed control at 500 g/ha [3]: 30%
- pest or weed control at 500 g/ha [4]: 20%
- pest or weed control at 500 g/ha (Lolium perenne (LOLPE)): 10%
- pest or weed control at 500 g/ha [5]: 10%
- pest or weed control at 500 g/ha (Eleusine indica (ELEIN)): 30%
- pest or weed control at 500 g/ha [6]: 20%
- pest or weed control at 500 g/ha (Setaria faberi (SETFA)): 10%

SMILES: Cn1nnc(-c2cc[n+](CCS(=O)(=O)[O-])cc2)n1 [Compound A27]
- pest or weed control at 500 g/ha [1]: 10%
- pest or weed control at 500 g/ha [2]: 20%
- pest or weed control at 500 g/ha [3]: 10%
- pest or weed control at 500 g/ha [4]: 10%
- pest or weed control at 500 g/ha (Lolium perenne (LOLPE)): 0%
- pest or weed control at 500 g/ha [5]: 0%
- pest or weed control at 500 g/ha (Eleusine indica (ELEIN)): 0%
- pest or weed control at 500 g/ha [6]: 0%
- pest or weed control at 500 g/ha (Setaria faberi (SETFA)): 0%

SMILES: O=C(O)C[n+]1ccc(-c2csnn2)cc1 [Compound A53]
- pest or weed control at 500 g/ha [1]: 20%
- pest or weed control at 500 g/ha [2]: 20%
- pest or weed control at 500 g/ha [3]: 10%
- pest or weed control at 500 g/ha [4]: 10%
- pest or weed control at 500 g/ha (Lolium perenne (LOLPE)): 0%
- pest or weed control at 500 g/ha [5]: 0%
- pest or weed control at 500 g/ha (Eleusine indica (ELEIN)): 0%
- pest or weed control at 500 g/ha [6]: 10%
- pest or weed control at 500 g/ha (Setaria faberi (SETFA)): 10%

SMILES: Cn1nccc1-c1cc[n+](CCOS(=O)(=O)[O-])cc1 [Compound A74]
- pest or weed control at 500 g/ha [1]: 10%
- pest or weed control at 500 g/ha [2]: 20%
- pest or weed control at 500 g/ha [3]: 40%
- pest or weed control at 500 g/ha [4]: 10%
- pest or weed control at 500 g/ha (Lolium perenne (LOLPE)): 10%
- pest or weed control at 500 g/ha [5]: 30%
- pest or weed control at 500 g/ha (Eleusine indica (ELEIN)): 20%
- pest or weed control at 500 g/ha [6]: 20%
- pest or weed control at 500 g/ha (Setaria faberi (SETFA)): 20%

SMILES: O=S(=O)([O-])C[n+]1ccc(-c2ccns2)cc1 [Compound A87]
- pest or weed control at 500 g/ha [1]: 0%
- pest or weed control at 500 g/ha [2]: 20%
- pest or weed control at 500 g/ha [3]: 10%
- pest or weed control at 500 g/ha [4]: 0%
- pest or weed control at 500 g/ha (Lolium perenne (LOLPE)): 0%
- pest or weed control at 500 g/ha [5]: 0%
- pest or weed control at 500 g/ha (Eleusine indica (ELEIN)): 0%
- pest or weed control at 500 g/ha [6]: 20%
- pest or weed control at 500 g/ha (Setaria faberi (SETFA)): 20%

SMILES: N#Cc1csc(-c2cc[n+](CCC(=O)O)cc2)n1 [Compound A88]
- pest or weed control at 500 g/ha [1]: 0%
- pest or weed control at 500 g/ha [2]: 90%
- pest or weed control at 500 g/ha [3]: 20%
- pest or weed control at 500 g/ha [4]: 10%
- pest or weed control at 500 g/ha (Lolium perenne (LOLPE)): 0%
- pest or weed control at 500 g/ha [5]: 0%
- pest or weed control at 500 g/ha (Eleusine indica (ELEIN)): 0%
- pest or weed control at 500 g/ha [6]: 0%
- pest or weed control at 500 g/ha (Setaria faberi (SETFA)): 0%

SMILES: Nc1nsc(-c2cc[n+](CCC(=O)O)cc2)n1 [Compound A92]
- pest or weed control at 500 g/ha [1]: 20%
- pest or weed control at 500 g/ha [2]: 80%
- pest or weed control at 500 g/ha [3]: 60%
- pest or weed control at 500 g/ha [4]: 100%
- pest or weed control at 500 g/ha (Lolium perenne (LOLPE)): 10%
- pest or weed control at 500 g/ha [5]: 80%
- pest or weed control at 500 g/ha (Eleusine indica (ELEIN)): 20%
- pest or weed control at 500 g/ha [6]: 60%
- pest or weed control at 500 g/ha (Setaria faberi (SETFA)): 60%

SMILES: Cc1nnc(-c2cc[n+](CCCS(=O)(=O)[O-])cc2)o1 [Compound A36]
- pest or weed control at 500 g/ha [1]: 30%
- pest or weed control at 500 g/ha [2]: 60%
- pest or weed control at 500 g/ha [3]: 60%
- pest or weed control at 500 g/ha [4]: 70%
- pest or weed control at 500 g/ha (Lolium perenne (LOLPE)): 0%
- pest or weed control at 500 g/ha [5]: 30%
- pest or weed control at 500 g/ha (Eleusine indica (ELEIN)): 10%
- pest or weed control at 500 g/ha [6]: 10%
- pest or weed control at 500 g/ha (Setaria faberi (SETFA)): 10%
